Source: ChEMBL document CHEMBL5131467, “Multivalent peptide dendrimers inhibit the fusion of viral-cellular membranes and the cellular NF-κB signaling pathway” (Eur J Med Chem, 2022)
Where a SMILES comes first, the peptide text is derived from it. Bridges are numbered along the chain shown (N, C = ends). Roman numbers before positions name the chains, in order. Side-chain parts run from the residue outwards. The star is where a group is joined. Acetyl(2-naphthyl) = O=C(Cc1ccc2ccccc2c1)*; Fmoc = O=C(OCC1c2ccccc2-c2ccccc21)*

Each compound was assayed on Influenza A virus (assay: Antiviral activity against Influenza A virus (A/Puerto Rico/8/1934(H1N1)) NA-H374Y mutant infected in MDCK cells incubated for 1 hr by MTT assay).
Assay type: functional, organism-based
CCOC(=O)c1c(CSc2ccccc2)n(C)c2cc(Br)c(O)c(CN(C)C)c12.Cl gave an IC50 of 600 nM. For NCCCC[C@H](NC(=O)OCC1c2ccccc2-c2ccccc21)C(=O)N[C@@H](CCCCN)C(=O)N[C@@H](Cc1c[nH]c2ccccc12)C(=O)N[C@@H](CCCCN)C(=O)NCCCC[C@H](NC(=O)[C@H](CCCCN)NC(=O)[C@H](Cc1c[nH]c2ccccc12)NC(=O)[C@H](CCCCN)NC(=O)[C@H](CCCCN)NC(=O)OCC1c2ccccc2-c2ccccc21)C(=O)NCCCC[C@H](NC(=O)[C@H](CCCCNC(=O)[C@H](CCCCN)NC(=O)[C@H](Cc1c[nH]c2ccccc12)NC(=O)[C@H](CCCCN)NC(=O)[C@H](CCCCN)NC(=O)OCC1c2ccccc2-c2ccccc21)NC(=O)[C@H](CCCCN)NC(=O)[C@H](Cc1c[nH]c2ccccc12)NC(=O)[C@H](CCCCN)NC(=O)[C@H](CCCCN)NC(=O)OCC1c2ccccc2-c2ccccc21)C(=O)NCC(=O)O (I: Fmoc-KKWKK([Lys-Trp-Lys-Lys-Fmoc])KG-OH / II: Fmoc-KKWKK([Lys-Trp-Lys-Lys-Fmoc]); amide I:6-II:C), the IC50 was 540 nM. In the case of NCCCC[C@H](NC(=O)Cc1ccc2ccccc2c1)C(=O)N[C@@H](CCCCN)C(=O)N[C@@H](Cc1c[nH]c2ccccc12)C(=O)N[C@@H](CCCCN)C(=O)NCCCC[C@H](NC(=O)[C@H](CCCCN)NC(=O)[C@H](Cc1c[nH]c2ccccc12)NC(=O)[C@H](CCCCN)NC(=O)[C@H](CCCCN)NC(=O)Cc1ccc2ccccc2c1)C(=O)NCCCC[C@H](NC(=O)[C@H](CCCCNC(=O)[C@H](CCCCN)NC(=O)[C@H](Cc1c[nH]c2ccccc12)NC(=O)[C@H](CCCCN)NC(=O)[C@H](CCCCN)NC(=O)Cc1ccc2ccccc2c1)NC(=O)[C@H](CCCCN)NC(=O)[C@H](Cc1c[nH]c2ccccc12)NC(=O)[C@H](CCCCN)NC(=O)[C@H](CCCCN)NC(=O)Cc1ccc2ccccc2c1)C(=O)NCC(=O)O (I: {Acetyl(2-naphthyl)}-KKWKK([Lys-Trp-Lys-Lys-Acetyl(2-naphthyl)])KG-OH / II: {Acetyl(2-naphthyl)}-KKWKK([Lys-Trp-Lys-Lys-Acetyl(2-naphthyl)]); amide I:6-II:C), the IC50 is reported as 160 nM.
